The source made the active and inactive calls.
Experiments:
[1] = biological target: T1, Corticotropin-releasing factor receptor 2/Corticotropin-releasing factor-binding protein (Homo sapiens, UniProt P24387+Q13324); assay: activators of CRF receptor 2 with binding protein – uHTS hits, confirmation (AID 602473); format: functional; conditions: read-out: EC50_Mean
T1 sequence (Q13324 whole entry): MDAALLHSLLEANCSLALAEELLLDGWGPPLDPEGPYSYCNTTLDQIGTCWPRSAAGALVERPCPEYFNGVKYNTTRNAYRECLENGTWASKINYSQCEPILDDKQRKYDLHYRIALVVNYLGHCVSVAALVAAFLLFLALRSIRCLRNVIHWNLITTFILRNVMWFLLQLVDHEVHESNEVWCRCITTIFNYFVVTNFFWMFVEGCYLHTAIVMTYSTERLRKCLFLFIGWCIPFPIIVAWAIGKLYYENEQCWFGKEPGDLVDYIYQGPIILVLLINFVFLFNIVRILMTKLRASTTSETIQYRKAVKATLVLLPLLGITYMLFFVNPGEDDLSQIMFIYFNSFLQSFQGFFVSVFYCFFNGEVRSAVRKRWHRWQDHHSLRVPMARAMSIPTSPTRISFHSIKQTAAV
T1 sequence (P24387 whole entry): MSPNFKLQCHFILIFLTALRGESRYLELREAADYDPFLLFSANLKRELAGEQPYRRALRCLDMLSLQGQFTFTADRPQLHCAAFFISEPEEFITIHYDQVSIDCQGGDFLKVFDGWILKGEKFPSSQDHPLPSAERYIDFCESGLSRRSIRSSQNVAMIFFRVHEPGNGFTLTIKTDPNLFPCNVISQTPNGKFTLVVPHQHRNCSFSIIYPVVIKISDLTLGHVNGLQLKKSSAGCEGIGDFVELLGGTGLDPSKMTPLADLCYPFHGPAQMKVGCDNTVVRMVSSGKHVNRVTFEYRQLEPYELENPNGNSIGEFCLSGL

[2] = biological target: T1, Corticotropin-releasing factor receptor 2/Corticotropin-releasing factor-binding protein; assay: Dose Response confirmation of uHTS hits for small molecule antagonists of the CRF-binding protein and CRF-R2 receptor complex.; format: functional; conditions: read-out: IC50_Mean
[3] = blockers of CRF-binding protein–CRF-R2 complex – cell-based, uHTS hits, 384-well, dose response (AID 651639); format: functional, Homo sapiens; conditions: read-out: IC50_Mean
Paired box protein Pax-8 = Paired box protein Pax-8 (Homo sapiens, UniProt Q06710); assay: PAX8 transcriptional activity inhibition in RMG-I – RMG-I cells, luciferase, cherry-pick, dose response (AID 687027); format: functional, cell-based;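 further: luciferase reporter driven by Pax8 target thyroperoxidase promoter measured by SteadyGlo luminescence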
Vero [4] = assay: cells; format: functional; conditions: Chlorocebus sabaeus
Vero [5] = assay: cells; format: functional, cell-based; conditions: Chlorocebus sabaeus
[6] = P. falciparum Dd2 growth inhibitors, dose response, SYBR Green, cherry-picked samples (AID 1159567); format: functional, cell-based
[7] = toxicity to human hepatoma HepG2 cells – cell-based, cherry-picked samples, cytotoxicity control, dose response (AID 1159577); format: functional
[8] = growth inhibition of PfATP4-mutant resistant parasites – NITD609-resistant line, SYBR Green, dry powder, dose response (AID 1159571); format: functional, cell-based;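 further: parasites synchronized at ring stage by sorbitol before testing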
[9] = growth inhibition of yeast DHODH-expressing 3D7 parasites – SYBR Green, dry powder samples, dose response (AID 1159570); format: functional, cell-based;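 further: parasite growth measured after 72 hours of compound exposure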
[10] = Dd2 malaria parasite growth inhibition potency – SYBR Green, dry powder samples, dose response (AID 1159566); format: functional, cell-based;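 further: potency for growth inhibition with lower SYBR green DNA signal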
[11] = biological target: T2, Rac GTPase-activating protein 1 (Homo sapiens, UniProt Q9H0H5); assay: blockers of MgcRacGAP-driven Rac1 GTP hydrolysis – biochemical, ADP Hunter fluorescence, primary and confirmatory, confirmation (AID 624330); format: functional
T2 sequence (Q9H0H5 whole entry): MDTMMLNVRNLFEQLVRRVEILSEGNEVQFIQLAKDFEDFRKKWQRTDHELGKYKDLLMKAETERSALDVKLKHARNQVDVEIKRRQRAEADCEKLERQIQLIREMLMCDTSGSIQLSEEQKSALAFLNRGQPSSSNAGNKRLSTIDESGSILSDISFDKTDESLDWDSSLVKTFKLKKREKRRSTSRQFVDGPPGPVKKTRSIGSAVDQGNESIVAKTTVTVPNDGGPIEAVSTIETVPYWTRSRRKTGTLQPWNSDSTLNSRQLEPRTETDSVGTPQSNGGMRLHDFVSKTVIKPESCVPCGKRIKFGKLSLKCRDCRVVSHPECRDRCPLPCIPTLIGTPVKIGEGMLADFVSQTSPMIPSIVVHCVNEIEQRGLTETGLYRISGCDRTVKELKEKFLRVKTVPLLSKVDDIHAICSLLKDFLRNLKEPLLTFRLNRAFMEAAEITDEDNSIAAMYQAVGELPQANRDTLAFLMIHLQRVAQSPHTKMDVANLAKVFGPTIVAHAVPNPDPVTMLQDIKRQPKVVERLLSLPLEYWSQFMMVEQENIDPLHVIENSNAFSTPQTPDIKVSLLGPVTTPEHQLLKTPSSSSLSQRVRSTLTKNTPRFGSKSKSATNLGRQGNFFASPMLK

[12] = viability loss in HeLa cells – cytotoxicity control for MgcRacGAP inhibitor project, dose response (AID 624300); format: functional

Sequence of Paired box protein Pax-8 (Q06710 whole entry): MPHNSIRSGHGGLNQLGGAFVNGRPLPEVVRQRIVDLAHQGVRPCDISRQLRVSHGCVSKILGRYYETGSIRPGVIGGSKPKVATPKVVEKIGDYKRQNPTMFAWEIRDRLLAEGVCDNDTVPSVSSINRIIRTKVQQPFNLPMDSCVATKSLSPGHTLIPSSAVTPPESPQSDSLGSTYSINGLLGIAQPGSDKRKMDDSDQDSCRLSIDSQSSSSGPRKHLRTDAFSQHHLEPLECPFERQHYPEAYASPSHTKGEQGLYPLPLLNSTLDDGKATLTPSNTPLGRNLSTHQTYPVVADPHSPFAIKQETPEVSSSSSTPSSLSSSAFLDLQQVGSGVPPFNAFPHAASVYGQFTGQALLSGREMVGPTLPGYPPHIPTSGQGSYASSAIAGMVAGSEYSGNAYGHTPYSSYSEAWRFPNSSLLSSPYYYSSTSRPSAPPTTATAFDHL

N#C/C(=N\Nc1ccccc1Cl)C(=O)c1ccccc1
EC50 [1]: > 53 µM (inactive)
IC50 [2]: 10.2 µM (active)
IC50 [3]: > 20 µM (inactive)

CC(=O)O[C@H]1C[C@H](O[C@H]2[C@@H](O)C[C@H](O[C@H]3[C@@H](O)C[C@H](O[C@H]4CC[C@@]5(C)[C@H](CC[C@@H]6[C@@H]5CC[C@]5(O)[C@@H](C7=CC(=O)OC7)CC[C@]65O)C4)O[C@@H]3C)O[C@@H]2C)O[C@H](C)[C@H]1O[C@@H]1O[C@H](CO)[C@@H](O)[C@H](O)[C@H]1O
AC50 (Paired box protein Pax-8): 1.98 µM (active)
CC50 (Vero [4]): 1.78 µM (active)
IC50 (Vero [5]): < 0.05 µM (active)

COc1ccc(NC(=O)Nc2cccc3c2O[C@H](CN(C)Cc2ccc(-c4ccccc4)cc2)[C@@H](C)CN([C@@H](C)CO)C3=O)cc1
AC50 [6]: 3.25 µM (active)
AC50 [7]: 16.2 µM (active)

COc1ccc(S(=O)(=O)N2CC[C@@H]3[C@H]2c2cc(C#Cc4ccccc4OC)ccc2N[C@@H]3CO)cc1
AC50 [6]: 11.3 µM (active)
AC50 [7]: > 39 µM (inactive)

OC[C@H]1[C@@H](c2ccc(/C=C/c3ccccc3)cc2)[C@@H]2CN(Cc3cncnc3)CCCCN12
AC50 [6]: 4.13 µM (active)
AC50 [7]: 20.3 µM (active)

COc1ccc(C#Cc2ccc3c(c2)O[C@@H](CN(C)S(=O)(=O)c2ccccc2F)[C@@H](C)CN([C@H](C)CO)S3(=O)=O)cc1
AC50 [6]: 1.23 µM (active)
AC50 [8]: 1.16 µM (active)
AC50 [9]: 1.43 µM (active)
AC50 [10]: 1.07 µM (active)

C[C@@H]1CN([C@@H](C)CO)C(=O)Cc2cc(NC(=O)Nc3ccccc3)ccc2O[C@H]1CN(C)Cc1ccc2c(c1)OCO2
AC50 [6]: 3.97 µM (active)
AC50 [7]: > 39 µM (inactive)

OC[C@@H]1Nc2ccc(C#Cc3ccccc3)cc2[C@@H]2[C@H]1CCN2Cc1nccs1
AC50 [6]: 2.95 µM (active)
AC50 [8]: 3.32 µM (active)
AC50 [9]: 3.71 µM (active)
AC50 [10]: 3.5 µM (active)
AC50 [7]: > 39 µM (inactive)

COc1cccc2c1C(=O)c1c(O)c3c(c(O)c1C2=O)C[C@@](O)(C(=O)CO)C[C@@H]3OC1CC(N)C(O)C(C)O1 (stereo partly specified)
IC50 [11]: 53.5 µM (active)
CC50 [12]: 23.5 µM (active)
IC50 (Vero [5]): > 25 µM (active)
